Results: US10760110B2, “Antibiotic testing and screening system” (priority 2017, dated 2020)
Values after ≈ are worked out from the molar mass of the structure shown. Like-named read-outs stand apart in the source and are kept apart here.

What was measured:
[1] = test system: A. baumannii KW1 strains with β-lactamase plasmids; test: Etest MIC of β-lactams, extended-spectrum β-lactamase, AmpC β-lactamase or carbapenemase (Table 18); format: cell-based, Acinetobacter baumannii
Method: DNA fragments of the resistance genes along with their flanking regions were amplified from clinical plasmids via PCR with specific primer pairs. The resulting PCR fragments were digested and then cloned into the plasmid pYMAb5 or pYMAb5Tc. The resulting plasmids were then transformed into A. baumannii KW1 via electroporation.
(§1) The MICs of antibiotics were determined using the Etest (Biodisk AB, Sweden) according to the manufacturer's instructions. The MICs from the Etest, which fall between standard two-fold dilutions, were rounded up to the next highest two-fold value. The MICs of ceftazidime and cefotaxime against K. pneumoniae NVT1001 harbouring the pACYC177 plasmid with blaOXA-48 were further determined using a broth microdilution test according to the recommendations of the CLSI,^25 and the results were interpreted according to the breakpoints established by the CLSI in 2017.^25 Meanwhile, due to the lack of CLSI breakpoints in 2016 and 2017, the results for cephalothin were interpreted according to the breakpoints established by the CLSI in 2015,^26 and the results for moxifloxacin were interpreted according to the breakpoints established by the EUCAST in 2017.^27

[2] = test system: K. pneumoniae NVT1001 ΔramRΔompK35/36 mutant and its revertants; test: Etest MIC, ΔramRΔompK35/36 mutant and its revertants (Table 7); format: cell-based; settings: Klebsiella pneumoniae
Text: The allelic-exchange method was used to restore the wild-type gene in the K. pneumoniae NVT1001 mutants with constructed chromosome-mediated resistance mechanisms, as described by Tsai et al.^19 Briefly, a DNA fragment of the entire wild-type gene sequence along with flanking regions was amplified from K. pneumoniae NVT1001 using PCR with specific primers. The resulting PCR fragment was digested and then cloned into pUT-KB. For homologous recombination, this plasmid was transformed into E. coli S17-1 λpir^23 via electroporation and mobilized into the K. pneumoniae NVT1001 mutant via conjugation. […] After incubation in 20 mL BHI broth for 6 hours at 37° C. in the absence of kanamycin, the fully grown cultures were spread onto LB agar plates supplemented with 10% sucrose. After the double crossover occurred, the sucrose-resistant and kanamycin-susceptible colonies were selected, and the restoration of the wild-type gene was confirmed via DNA sequencing.
as §1

[3] = test system: K. pneumoniae NVT1001 and its ΔompK35/36 and/or ΔramR mutants; test: Etest MIC, OmpK35/36 loss and AcrAB-TolC overexpression (ΔramR) strains (Table 6); format: cell-based, Klebsiella pneumoniae; settings: Klebsiella pneumoniae
Method: as §1

[4] = test system: K. pneumoniae NVT1001 strains with Sul/Dfr plasmids; test: Etest MIC of folate pathway inhibitors, OmpK35/36 loss, ΔramR and/or drug-resistant target enzyme (Table 15); format: cell-based, Klebsiella pneumoniae; settings: for MIC: Klebsiella pneumoniae
Method: DNA fragments of the resistance genes along with their flanking regions were amplified from clinical plasmids via PCR with specific primer pairs. The resulting PCR fragments were digested and then cloned into the plasmid pACYC177 or pACYC184. The resulting plasmids were then transformed into K. pneumoniae strain NVT1001 via electroporation. The recombinant bacteria were plated onto LB agar plates containing kanamycin (50 mg/L) or chloramphenicol (50 mg/L), and the presence of the cloned gene was confirmed via PCR and DNA sequencing.
as §1

**Q.** Which results are given for C[C@H]1[C@H](NC(=O)/C(=N\OC(C)(C)C(=O)O)c2csc(N)n2)C(=O)N1S(=O)(=O)O [ATM]?
**A.** MIC ([1]; KW1, no supplemental plasmid): 16 µg/mL; MIC ([1]; KW1 with ADC-30 on pYMAb5): 64 µg/mL; MIC ([1]; KW1 with CTX-M-15 on pYMAb5): >256 µg/mL; MIC ([1]; KW1 with IMP-1 on pYMAb5): 16 µg/mL; MIC ([1]; KW1 with NDM-1 on pYMAb5): 12 µg/mL; MIC ([1]; KW1 with OXA-23 on pYMAb5): 16 µg/mL; MIC ([1]; KW1 with OXA-58 on pYMAb5): 16 µg/mL; MIC ([1]; KW1 with OXA-66 on pYMAb5): 12 µg/mL; MIC ([1]; KW1 with OXA-72 on pYMAb5): 16 µg/mL; MIC ([1]; KW1 with VEB-3 on pYMAb5): >256 µg/mL; MIC ([1]; KW1 with VIM-1 on pYMAb5): 12 µg/mL; MIC ([1]; KW1 with shuttle vector pYMAb5): 12 µg/mL

**Q.** How did the MIC ([1]; KW1, no supplemental plasmid) turn out when C[C@@H](O)[C@H]1C(=O)N2C(C(=O)O)=C(S[C@@H]3CN[C@H](CNS(N)(=O)=O)C3)[C@H](C)[C@H]12 [DOR] was run?
**A.** The MIC was 0.38 µg/mL.

**Q.** And the MIC ([1]; KW1 with ADC-30 on pYMAb5)?
**A.** The MIC was 4 µg/mL.

**Q.** And the MIC ([1]; KW1 with CTX-M-15 on pYMAb5)?
**A.** Its MIC is 1.5 µg/mL.

**Q.** What about the MIC ([1]; KW1 with IMP-1 on pYMAb5) of the same compound?
**A.** Its MIC is 16 µg/mL.

**Q.** And the MIC ([1]; KW1 with NDM-1 on pYMAb5)?
**A.** Its MIC is greater than 32 µg/mL.

**Q.** And the MIC ([1]; KW1 with OXA-23 on pYMAb5)?
**A.** Its MIC is greater than 32 µg/mL.

**Q.** And the MIC ([1]; KW1 with OXA-58 on pYMAb5)?
**A.** The MIC was 6 µg/mL.

**Q.** And the MIC ([1]; KW1 with OXA-66 on pYMAb5)?
**A.** Its MIC is 8 µg/mL.

**Q.** And the MIC ([1]; KW1 with OXA-72 on pYMAb5)?
**A.** The MIC was greater than 32 µg/mL.

**Q.** And the MIC ([1]; KW1 with VEB-3 on pYMAb5)?
**A.** The MIC was 0.38 µg/mL.

**Q.** What about the MIC ([1]; KW1 with VIM-1 on pYMAb5) of the same compound?
**A.** The MIC was greater than 32 µg/mL.

**Q.** What about the MIC ([1]; KW1 with shuttle vector pYMAb5) of the same compound?
**A.** The MIC was 0.38 µg/mL.

**Q.** Which results are given for COc1cc(Cc2cnc(N)nc2N)cc(OC)c1OC [Trimethoprim]?
**A.** MIC ([2]; ΔramRΔompK35/36::ompK35/36 revertant): 8 µg/mL; MIC ([2]; ΔramRΔompK35/36::ompK35 revertant): 8 µg/mL; MIC ([2]; ΔramRΔompK35/36::ompK36 revertant): 8 µg/mL; MIC ([2]; ΔramRΔompK35/36::ramR revertant): 2 µg/mL; MIC ([2]; ΔramRΔompK35/36::ramR::ompK35/36 revertant): 2 µg/mL; MIC ([2]; ΔramRΔompK35/36::ramR::ompK35 revertant): 2 µg/mL; MIC ([2]; ΔramRΔompK35/36::ramR::ompK36 revertant): 2 µg/mL; MIC ([2]; ΔramRΔompK35/36 mutant): > 32 µg/mL; MIC ([3]; WT, NVT1001, read-out: MIC): 2 µg/mL (≈ 6.89 µM); MIC ([3]; Δ35, ΔompK35 mutant): 2 µg/mL (≈ 6.89 µM); MIC ([3]; Δ35/36, ΔompK35/36 mutant): 2 µg/mL (≈ 6.89 µM); MIC ([3]; Δ36, ΔompK36 mutant): 2 µg/mL (≈ 6.89 µM); MIC ([3]; ΔramR mutant): 8 µg/mL (≈ 27.6 µM); MIC ([3]; ΔramRΔ35, ΔramRΔompK35 mutant): 8 µg/mL (≈ 27.6 µM); MIC ([3]; ΔramRΔ35/36, ΔramRΔompK35/36 mutant): > 32 µg/mL; MIC ([3]; ΔramRΔ36, ΔramRΔompK36 mutant): 16 µg/mL (≈ 55.1 µM); MIC ([4]; DfrA1 on pACYC177, WT (NVT1001), read-out: MIC): > 32 µg/mL; MIC ([4]; DfrA1 on pACYC177, ΔompK35/36 mutant): > 32 µg/mL; MIC ([4]; DfrA1 on pACYC177, ΔompK35 mutant): > 32 µg/mL; MIC ([4]; DfrA1 on pACYC177, ΔompK36 mutant): > 32 µg/mL; MIC ([4]; DfrA1 on pACYC177, ΔramR mutant): > 32 µg/mL; MIC ([4]; DfrA1 on pACYC177, ΔramRΔompK35/36 mutant): > 32 µg/mL; MIC ([4]; DfrA1 on pACYC177, ΔramRΔompK35 mutant): > 32 µg/mL; MIC ([4]; DfrA1 on pACYC177, ΔramRΔompK36 mutant): > 32 µg/mL; MIC ([4]; DfrA16 on pACYC177, WT (NVT1001), read-out: MIC): > 32 µg/mL; MIC ([4]; DfrA16 on pACYC177, ΔompK35/36 mutant): > 32 µg/mL; MIC ([4]; DfrA16 on pACYC177, ΔompK35 mutant): > 32 µg/mL; MIC ([4]; DfrA16 on pACYC177, ΔompK36 mutant): > 32 µg/mL; MIC ([4]; DfrA16 on pACYC177, ΔramR mutant): > 32 µg/mL; MIC ([4]; DfrA16 on pACYC177, ΔramRΔompK35/36 mutant): > 32 µg/mL; MIC ([4]; DfrA16 on pACYC177, ΔramRΔompK35 mutant): > 32 µg/mL; MIC ([4]; DfrA16 on pACYC177, ΔramRΔompK36 mutant): > 32 µg/mL; MIC ([4]; Sul1 on pACYC177, WT (NVT1001), read-out: MIC): 2 µg/mL; MIC ([4]; Sul1 on pACYC177, ΔompK35/36 mutant): 4 µg/mL; MIC ([4]; Sul1 on pACYC177, ΔompK35 mutant): 2 µg/mL; MIC ([4]; Sul1 on pACYC177, ΔompK36 mutant): 2 µg/mL; MIC ([4]; Sul1 on pACYC177, ΔramR mutant): 16 µg/mL; MIC ([4]; Sul1 on pACYC177, ΔramRΔompK35/36 mutant): > 32 µg/mL; MIC ([4]; Sul1 on pACYC177, ΔramRΔompK35 mutant): 32 µg/mL; MIC ([4]; Sul1 on pACYC177, ΔramRΔompK36 mutant): > 32 µg/mL; MIC ([4]; Sul2 on pACYC177, WT (NVT1001), read-out: MIC): 2 µg/mL; MIC ([4]; Sul2 on pACYC177, ΔompK35/36 mutant): 4 µg/mL; MIC ([4]; Sul2 on pACYC177, ΔompK35 mutant): 4 µg/mL; MIC ([4]; Sul2 on pACYC177, ΔompK36 mutant): 4 µg/mL; MIC ([4]; Sul2 on pACYC177, ΔramR mutant): 16 µg/mL; MIC ([4]; Sul2 on pACYC177, ΔramRΔompK35/36 mutant): > 32 µg/mL; MIC ([4]; Sul2 on pACYC177, ΔramRΔompK35 mutant): 32 µg/mL; MIC ([4]; Sul2 on pACYC177, ΔramRΔompK36 mutant): 32 µg/mL; MIC ([4]; no supplemental plasmid, WT (NVT1001), read-out: MIC): 2 µg/mL; MIC ([4]; no supplemental plasmid, ΔompK35/36 mutant): 2 µg/mL; MIC ([4]; no supplemental plasmid, ΔompK35 mutant): 2 µg/mL; MIC ([4]; no supplemental plasmid, ΔompK36 mutant): 2 µg/mL; MIC ([4]; no supplemental plasmid, ΔramR mutant): 8 µg/mL; MIC ([4]; no supplemental plasmid, ΔramRΔompK35/36 mutant): > 32 µg/mL; MIC ([4]; no supplemental plasmid, ΔramRΔompK35 mutant): 8 µg/mL; MIC ([4]; no supplemental plasmid, ΔramRΔompK36 mutant): 16 µg/mL; effects on the MIC ([4]; strains with porin loss and/or Sul production): no significant (≥4-fold) effects
